Laboratory results published in US7666864B2, “Bicyclic nitroimidazole-substituted phenyl oxazolidinones” (priority 2008, dated 2010).
Values after ≈ are worked out from the molar mass of the structure shown. Where two headings read alike, the source gives them in different places.

Legend:
[1] = tested on: Staphylococcus aureus ATCC 29213; assay: MIC against Staphylococcus aureus ATCC 29213, microbroth dilution (NCCLS); type: cell-based; conditions: for activity against Staphylococcus aureus ATCC 29213 (in words): Gram-positive species; for MIC: Staphylococcus aureus, ATCC29213, microbroth dilution, read-out: MIC S. aureus ATCC# 29213
[2] = tested on: S. aureus ATCC# 29213 (Lzd-resistant); assay: microbe, parasite or virus in culture; type: cell-based, Staphylococcus aureus; conditions: for MIC: Staphylococcus aureus, ATCC29213, linezolid-resistant isogenic strain; for MIC against strain resistant to linezolid: linezolid-resistant S. aureus
[3] = tested on: Mycobacterium tuberculosis H37Rv; assay: MIC against Mycobacterium tuberculosis H37Rv (method of Gruppo); type: cell-based; conditions: for MIC: Mycobacterium tuberculosis, H37RV
[4] = tested on: Mycobacterium tuberculosis H37Rv; assay: Anaerobic activity against Mycobacterium tuberculosis H37Rv under Wayne conditions (method of Lenaerts); type: cell-based

`CC(=O)NC[C@H]1CN(c2ccc(-c3cnc(O[C@@H]4COc5nc([N+](=O)[O-])cn5C4)nc3)c(F)c2)C(=O)O1` [Example 8, (S,S)—N-(3-{3-Fluoro-4-[2-(2-nitro-6,7-dihydro-5H-imidazo[2,1-b][1,3]oxazin-6-yloxy)-pyrimidin-5-yl]-phenyl}-2-oxo-oxazolidin-5-ylmethyl)-acetamide] was tested, and the “activity against Staphylococcus aureus ATCC 29213 (in words)” value [1] was “more potent than linezolid”, the MIC [1] was 1 µg/mL (≈ 1.95 µM) and the MIC [2] was 8 µg/mL (≈ 15.6 µM). The “MIC against strain resistant to linezolid” value (from here on “MIC against strain resistant”) [2] was 8 micg/mL and the MIC [3] was 1 µg/mL (≈ 1.95 µM).

`CC(=O)NC[C@H]1CN(c2ccc(-c3ccc(CO[C@@H]4COc5nc([N+](=O)[O-])cn5C4)cc3)c(F)c2)C(=O)O1` [Example 31, (S,S)—N-{3-[2-Fluoro-4′-(2-nitro-6,7-dihydro-5H-imidazo[2,1-b][1,3]oxazin-6-yloxymethyl)-biphenyl-4-yl]-2-oxo-oxazolidin-5-ylmethyl}-acetamide] was tested, and the “activity against Staphylococcus aureus ATCC 29213 (in words)” value [1] was “more potent than linezolid”, the MIC [1] was 1 µg/mL (≈ 1.9 µM) and the MIC [2] was 4 µg/mL (≈ 7.61 µM). The “MIC against strain resistant” value [2] was 4 micg/mL and the MIC [3] was 0.5 µg/mL (≈ 0.951 µM).

For `CC(=O)NC[C@H]1CN(c2ccc(OCC3(C)Cn4cc([N+](=O)[O-])nc4O3)c(F)c2)C(=O)O1` (stereo partly shown) [Example 50, N-{3-[3-Fluoro-4-(2-methyl-6-nitro-2,3-dihydro-imidazo[2,1-b]oxazol-2-ylmethoxy)-phenyl]-2-oxo-oxazolidin-5-ylmethyl}-acetamide], the MIC [1] was 64 µg/mL (≈ 142 µM), the “M. tuberculosis H37Rv % survival at 10 ug/mL (Low O2)” value (shortened to “M. tuberculosis H37Rv % survival”) [4] was 1.8% and the “fold less potent than PA-824, in vitro MIC” value [3] was 8 fold. For the same compound, the “fold less potent than linezolid, in vitro MIC” value [3] was 2 fold and the MIC [3] was 4 µg/mL (≈ 8.9 µM).

For `CC(=O)NC[C@H]1CN(c2ccc(N3CCOCC3)c(F)c2)C(=O)O1` [Linezolid, linezolid, reference compound], the MIC [1] was 2 µg/mL (≈ 5.93 µM), the “M. tuberculosis H37Rv % survival” value [4] was 28.2% and the “M. tuberculosis H37Rv % survival” value ([4]; listed as linezolid) was 28.2%. For the same compound, the MIC [2] was 64 µg/mL (≈ 190 µM), the “MIC against strain resistant” value [2] was 64 micg/mL and the MIC [3] was 2 µg/mL (≈ 5.93 µM).

For `O=[N+]([O-])c1cn2c(n1)OC[C@@H](OCc1ccc(OC(F)(F)F)cc1)C2` [PA-824, reference compound], the MIC [1] was over 64 µg/mL, the “M. tuberculosis H37Rv % survival” value [4] was 3.6% and the MIC [2] was over 64 µg/mL. The MIC [3] was 0.5 µg/mL (≈ 1.39 µM).
